Series [1] concerns Glomerella lagenarium (Colletotrichum lagenarium). The experiment in a line: Glomerella lagenarium (Colletotrichum lagenarium) / liquid culture (Anthracnose). The format is cell-based. To be noted: Colletotrichum orbiculare, growth inhibition photometrically 3-4 days after application, compared to untreated control.
The subject of series [2] is Botryotinia fuckeliana (Botrytis cinerea). Kind of series: Botryotinia fuckeliana (Botrytis cinerea) / liquid culture (Gray mould). The format is cell-based. To be noted: growth inhibition photometrically 3-4 days after application, compared to untreated control.

Each structure is given as a SMILES string.

In general, melting point refers to the temperature, or range, at which the solid turns liquid. By inhibition of growth is commonly meant the change of the read-out against control, counted positive when it falls. Read a low inhibition of growth as a weak effect.

`CC1(C)N=C(c2cnc3c(F)cccn23)c2cccc(Cl)c2C1Br` (stereo not drawn) showed a melting point of 213 to 214 °C.

With `CC1(C)N=C(c2cnc3c(F)cccn23)c2cccc(F)c2C1Br` (stereo not drawn), the melting point fell in the range of 211 to 212 °C. Still for that read-out and setting: under `CC1(C)N=C(c2cnc3c(F)cccn23)c2cccc(F)c2C1=O` stands 160 to 161 °C; under `CC1(C)N=C(c2cnc3ccc(O)cn23)c2cccc(F)c2C1(C)C`, 321 to 322 °C; under `CC1(C)N=C(c2cnc3c(Br)cccn23)c2cccc(F)c2C1Br` (stereo not drawn), 217 to 218 °C. Still for that read-out and setting: under `CC1(C)N=C(c2cnc3c(Br)cccn23)c2cccc(F)c2C1O` (stereo not drawn) stands 204 to 205 °C; under `CC1(C)N=C(c2cnc3c(Br)cccn23)c2cccc(F)c2C1=O`, 146 to 147 °C; under `CC1(C)N=C(c2cnc3ccc(F)cn23)c2cccc(F)c2C1(C)C`, 200 to 202 °C. For `CC1(C)N=C(c2cnc3c(Br)cccn23)c2ccccc2C1=O`, the melting point fell in the range of 204 to 205 °C. The same measure, in the same setting: under `CC1(C)N=C(c2cnc3c(Br)cccn23)c2ccccc2C1(F)F` stands 173 °C; under `CC1(C)Cc2c(Cl)cccc2C(c2cnc3ccc(F)cn23)=N1`, 142 to 143 °C.

Consider `CC1(C)Cc2ccccc2C(c2cnc3cc(I)ccn23)=N1`, for which the melting point fell in the range of 190 to 193 °C. As for `Cc1cccn2ncc(C3=NC(C)(C)C(=O)c4c(F)cccc43)c12`, the melting point was in the range of 141 to 143 °C. In turn, `CC1(C)N=C(c2cnn3cccc(Br)c23)c2ccccc2C1=O` registered a melting point of 148 to 151 °C. Same read-out and setting: under `Cc1ccc2c(C3=NC(C)(C)C(F)(F)c4ccccc43)cnn2c1C` stands 160 to 161 °C.

The compound `CC1(C)N=C(c2cnc3ccccn23)c2cc(F)ccc2C1(C)C` [Compound E-2, 7-fluoro-1-imidazo[1,2-a]pyridin-3-yl-3,3,4,4-tetramethyl-isoquinoline] displayed an inhibition of growth at 20 ppm in series [1] of no less than 80%. As to `CC1(C)Cc2c(Cl)cccc2C(c2cnc3ccccn23)=N1` [Compound E-3, 5-chloro-1-imidazo[1,2-a]pyridin-3-yl-3,3-dimethyl-4H-isoquinoline], in series [1], the inhibition of growth at 20 ppm is no less than 80%. As to `CC1(C)N=C(c2cnc3c(OC(F)F)cccn23)c2cccc(F)c2C1(C)C` [Compound E-7, 1-[8-(difluoromethoxy)imidazo [1,2-a]pyridin-3-yl]-5-fluoro-3,3,4,4-tetramethyl-isoquinoline], the melting point is 121 to 122 °C. The same compound showed an inhibition of growth at 20 ppm in series [2] of no less than 80%. Besides, in series [1], the inhibition of growth at 20 ppm is no less than 80%. In the case of `CC1(C)Cc2c(F)cccc2C(c2cnc3c(F)cccn23)=N1` [Compound E-10, 5-fluoro-1-(8-fluoroimidazo[1,2-a]pyridin-3-yl)-3,3-dimethyl-4H-isoquinoline], the inhibition of growth at 20 ppm in series [2] and in series [1] was no less than 80% each time. In turn, `CC1(C)Cc2c(Cl)cccc2C(c2cnc3c(F)cccn23)=N1` [Compound E-11, 5-chloro-1-(8-fluoroimidazo[1,2-a]pyridin-3-yl)-3,3-dimethyl-4H-isoquinoline] displayed a melting point of 122 to 123 °C. In series [2], this compound registered an inhibition of growth at 20 ppm of no less than 80%. The compound further registered an inhibition of growth at 20 ppm in series [1] of no less than 80%. Regarding `CC1(C)N=C(c2cnc3c(F)cccn23)c2cccc(F)c2C1O` (stereo not drawn) [Compound E-14, 5-fluoro-1-(8-fluoroimidazo[1,2-a]pyridin-3-yl)-3,3-dimethyl-4H-isoquinolin-4-ol], the melting point was determined as 219 °C. Further, the inhibition of growth at 20 ppm in series [1] was no less than 80%. The corresponding values for `CC1(C)Cc2c(F)cccc2C(c2cnc3c(Br)cccn23)=N1` [Compound E-16, 1-(8-bromoimidazo[1,2-a]pyridin-3-yl)-5-fluoro-3,3-dimethyl-4H-isoquinoline] are 179 to 181 °C and no less than 80%. For `CSc1cccn2c(C3=NC(C)(C)Cc4c(F)cccc43)cnc12` [Compound E-17, 5-fluoro-3,3-dimethyl-1-(8-methylsulfanyl-imidazo[1,2-a]pyridin-3-yl)-4H-isoquinoline], the melting point is 119 to 120 °C. In addition, the inhibition of growth at 20 ppm in series [1] was no less than 80%. For the compound `CC1(C)N=C(c2cnc3c(F)cccn23)c2cccc(F)c2C1(F)F` [Compound E-19, 4,4,5-trifluoro-1-(8-fluoroimidazo[1,2-a]pyridin-3-yl)-3,3-dimethyl-isoquinoline], the melting point lay within 145 to 146 °C. The compound also had an inhibition of growth at 20 ppm in series [2] of no less than 80%. Further, in series [1], the inhibition of growth at 20 ppm is no less than 80%. Turning to `C#Cc1cccn2c(C3=NC(C)(C)C(C)(C)c4c(F)cccc43)cnc12` [Compound E-23, 1-(8-ethynylimidazo[1,2-a]pyridin-3-yl)-5-fluoro-3,3,4,4-tetramethyl-isoquinoline], the melting point lay in the range of 169 to 170 °C. In series [2], this compound registered an inhibition of growth at 20 ppm of no less than 80%. The compound `CC1(C)N=C(c2cnc3c(O)cccn23)c2cccc(F)c2C1(C)C` [Compound E-27, 3-(5-fluoro-3,3,4,4-tetramethyl-1-isoquinolyl)imidazo[1,2-a]pyridin-8-ol] registered a melting point of 271 to 272 °C. Further, the inhibition of growth at 20 ppm in series [2] is no less than 80%. The compound also had an inhibition of growth at 20 ppm in series [1] of no less than 80%.

In turn, `Cc1cccc2ncc(C3=NC(C)(C)C(C)(C)c4c(F)cccc43)n12` [Compound E-30, 5-fluoro-3,3,4,4-tetramethyl-1-(5-methylimidazo[1,2-a]pyridin-3-yl)isoquinoline] returned a melting point of 139 to 140 °C. This compound also displayed an inhibition of growth at 20 ppm in series [2] of no less than 80%. In series [1], this compound had an inhibition of growth at 20 ppm of no less than 80%. Consider `Cc1nc2c(C)cccn2c1C1=NC(C)(C)C(C)(C)c2c(F)cccc21` [Compound E-40, 1-(2,8-dimethylimidazo[1,2-a]pyridin-3-yl)-5-fluoro-3,3,4,4-tetramethyl-isoquinoline], for which the inhibition of growth at 20 ppm in series [2] and in series [1] was no less than 80% in each case. With `CC1(C)N=C(c2cnc3cc(C#N)ccn23)c2cccc(F)c2C1(C)C` [Compound E-46, 3-(5-fluoro-3,3,4,4-tetramethyl-1-isoquinolyl)imidazo[1,2-a]pyridine-7-carbonitrile], the melting point was in the range of 193 to 194 °C. The inhibition of growth at 20 ppm in series [2] is no less than 80%. For the same compound, the inhibition of growth at 20 ppm in series [1] is no less than 80%. In series [2], `CC1(C)Cc2c(Br)cccc2C(c2cnn3ccccc23)=N1` [Compound E-60, 5-bromo-3,3-dimethyl-1-pyrazolo[1,5-a]pyridin-3-yl-4H-isoquinoline] had an inhibition of growth at 20 ppm of no less than 80%. As to `Cc1nn2ccccc2c1C1=NC(C)(C)C(C)(C)c2c(F)cccc21` [Compound E-62, 5-fluoro-3,3,4,4-tetramethyl-1-(2-methylpyrazolo[1,5-a]pyridin-3-yl)isoquinoline], the inhibition of growth at 20 ppm in series [2] and in series [1] was no less than 80% in each case. Take `Cc1cccn2ncc(C3=NC(C)(C)C(=O)c4ccccc43)c12` [Compound E-68, 3,3-dimethyl-1-(4-methylpyrazolo[1,5-a]pyridin-3-yl)isoquinolin-4-one]: the melting point fell in the range of 140 to 141 °C. The compound further displayed an inhibition of growth at 20 ppm in series [2] of no less than 80%. The corresponding values for `Cc1cccn2ncc(C3=NC(C)(C)C(=O)c4cc(F)ccc43)c12` [Compound E-75, 6-fluoro-3,3-dimethyl-1-(4-methylpyrazolo[1,5-a]pyridin-3-yl)isoquinolin-4-one] are 180 to 183 °C and no less than 80%.
